According to PMC6160999, “Pharmacokinetics, Tissue Distribution and Excretion of a Novel Diuretic (PU-48) in Rats” (Pharmaceutics, 2018):
Several values for one entry are separate records, joined by “and”; a condition that tells them apart may be missing. Equal entries are not always repeated.

How the values were obtained:
[1] = Urine and feces excretion after single oral PU-48 SNEDDS; format: in vivo; conditions: rat, oral PU-48 SNEDDS 12 mg/kg
Method: (§1) Internal standard (IS, 25 μL) was added to 50 μL plasma, urine, or bile sample in a clean tube, placed into a water bath at 37 °C, and dried under a gentle stream of nitrogen gas, followed by the addition of 0.5 mL of ethyl acetate for liquid-liquid extraction. The mixture was shaken by a vortex mixer for 3 min, and then centrifuged at 8000 rpm (4200× g) for 10 min at 4 °C. After centrifugation, the upper organic phase was transferred into a clean centrifuge tube and then dried it again. The combined upper organic phases were evaporated to dryness at 37 °C under a gentle stream of nitrogen gas. The residue was reconstituted with 50 μL acetonitrile and then centrifuged at 13,000 rpm (12,000× g) for 10 min at 4 °C, the upper liquid was transferred into sample vials. Finally, 5 μL aliquots were injected into the LC–MS/MS system to analyze. Each tissue samples were homogenized in normal saline (0.9% NaCl, 1:3, w/v), and then centrifuged at 10,000× g for 10 min to get the supernatant. Other steps were the same as plasma sample preparation.
Feces samples were homogenized in 0.9% NaCl solution (1 g/10 mL), vortexed for 1 min and then centrifuged at 1200× g for 15 min to gather the supernatant. A volume of 25 μL of IS was added to 500 μL mixture in a clean tube, placed into a water bath at 37 °C and dried under a gentle stream of nitrogen gas, followed by the addition of 2 mL of ethyl acetate for twice liquid-liquid extraction (total 4 mL). The residue was reconstituted with 50 μL mobile phase and then 5 μL aliquots were injected into the HPLC system to analyze.
(§2) Six male rats were given single orally administration of PU-48 (12 mg/kg, 1.2 mg/mL in the SNEDDS formulation) and housed in separate stainless-steel metabolism cages. Both feces and urine samples were collected at 0–1, 1–2, 2–4, 4–6, 6–8, 8–12, 12–24, 24–48, 48–72 and 72–96 h. In a separate study, bile samples were collected 0–1, 1–2, 2–4, 4–6, 6–8, 8–12, 12–24, 24–48, 48–72 and 72–96 h after oral administration of PU-48 (12 mg/kg, 1.2 mg/mL in the SNEDDS formulation) to six bile duct-cannulated rats.

[2] = Bile excretion in bile duct-cannulated rats; format: in vivo; conditions: bile duct-cannulated rat, oral PU-48 SNEDDS 12 mg/kg
Method: as §1, §2

COC(=O)c1sc2nc3ccc(OC)cc3cc2c1N [PU-48, Methyl 3-amino-6-methoxythieno [2,3-b] quinoline-2-carboxylate]
Accumulative Excretion Amount, urine ([1]; 0–1 h): 61.2 ± 13.4 ng | Accumulative Excretion Percentage, urine ([1]; 0–1 h): 0.0022 ± 0.0005% | Excretion Amount, urine ([1]; 0–1 h): 61.2 ± 13.4 ng | PU-48 Concentration in urine ([1]; 0–1 h): 627.9 ± 94.1 ng/mL | Accumulative Excretion Amount, feces ([1]; 0–6 h): 0.1 µg | Accumulative Excretion Percentage, feces ([1]; 0–6 h): 0.0022% | Excretion Amount, feces ([1]; 0–6 h): 0.1 µg | PU-48 Concentration in feces ([1]; 0–6 h): 0.1 µg/mL | Accumulative Excretion Amount, urine ([1]; 1–2 h): 131.8 ± 37.9 ng | Accumulative Excretion Percentage, urine ([1]; 1–2 h): 0.0047 ± 0.0015% | Excretion Amount, urine ([1]; 1–2 h): 80.8 ± 41.0 ng | PU-48 Concentration in urine ([1]; 1–2 h): 376.3 ± 184.2 ng/mL | Accumulative Excretion Amount, urine ([1]; 2–4 h): 203.6 ± 48.4 ng | Accumulative Excretion Percentage, urine ([1]; 2–4 h): 0.0073 ± 0.0018% | Excretion Amount, urine ([1]; 2–4 h): 107.7 ± 30.0 ng | PU-48 Concentration in urine ([1]; 2–4 h): 97.3 ± 20.1 ng/mL | Accumulative Excretion Amount, urine ([1]; 4–6 h): 345.3 ± 107.2 ng | Accumulative Excretion Percentage, urine ([1]; 4–6 h): 0.0123 ± 0.0038% | Excretion Amount, urine ([1]; 4–6 h): 141.7 ± 78.0 ng | PU-48 Concentration in urine ([1]; 4–6 h): 156.3 ± 65.6 ng/mL | Accumulative Excretion Amount, feces ([1]; 6–8 h): 0.4 µg | Accumulative Excretion Percentage, feces ([1]; 6–8 h): 0.0128% | Excretion Amount, feces ([1]; 6–8 h): 0.4 µg | PU-48 Concentration in feces ([1]; 6–8 h): 0.4 µg/mL | Accumulative Excretion Amount, urine ([1]; 6–12 h): 496.4 ± 129.9 ng | Accumulative Excretion Percentage, urine ([1]; 6–12 h): 0.0178 ± 0.0048% | Excretion Amount, urine ([1]; 6–12 h): 151.1 ± 94.8 ng | PU-48 Concentration in urine ([1]; 6–12 h): 83.6 ± 56.6 ng/mL | Accumulative Excretion Amount, feces ([1]; 8–12 h): 12.5 ± 14.6 µg | Accumulative Excretion Percentage, feces ([1]; 8–12 h): 0.44 ± 0.51% | Excretion Amount, feces ([1]; 8–12 h): 12.5 ± 14.5 µg | PU-48 Concentration in feces ([1]; 8–12 h): 6.9 ± 6.5 µg/mL | Accumulative Excretion Amount, feces ([1]; 12–24 h): 31.5 ± 21.4 µg | Accumulative Excretion Amount, urine ([1]; 12–24 h): 850.7 ± 589.4 ng | Accumulative Excretion Percentage, feces ([1]; 12–24 h): 1.11 ± 0.73% | Accumulative Excretion Percentage, urine ([1]; 12–24 h): 0.0306 ± 0.0216% | Excretion Amount, feces ([1]; 12–24 h): 19.0 ± 11.3 µg | Excretion Amount, urine ([1]; 12–24 h): 354.3 ± 485.8 ng | PU-48 Concentration in feces ([1]; 12–24 h): 9.4 ± 5.3 µg/mL | PU-48 Concentration in urine ([1]; 12–24 h): 65.3 ± 94.6 ng/mL | Accumulative Excretion Percentage, urine ([1]; 24–36 h): 0.0380 ± 0.0250% | Excretion Amount, urine ([1]; 24–36 h): 207.5 ± 123.7 ng | PU-48 Concentration in urine ([1]; 24–36 h): 45.0 ± 36.9 ng/mL | Accumulative Excretion Amount, feces ([1]; 24–48 h): 41.0 ± 21.7 µg | Accumulative Excretion Percentage, feces ([1]; 24–48 h): 1.45 ± 0.74% | Excretion Amount, feces ([1]; 24–48 h): 9.5 ± 9.5 µg | PU-48 Concentration in feces ([1]; 24–48 h): 1.8 ± 1.9 µg/mL | Excretion Amount, urine ([1]; 36–48 h): 158.4 ± 125.3 ng | PU-48 Concentration in urine ([1]; 36–48 h): 25.6 ± 27.4 ng/mL | Accumulative Excretion Amount, feces ([1]; 48–72 h): 44.3 ± 22.1 µg | Accumulative Excretion Amount, urine ([1]; 48–72 h): 1319.8 ± 734.0 ng | Accumulative Excretion Percentage, feces ([1]; 48–72 h): 1.56 ± 0.75% | Accumulative Excretion Percentage, urine ([1]; 48–72 h): 0.0473 ± 0.0267% | Excretion Amount, feces ([1]; 48–72 h): 3.2 ± 4.4 µg | Excretion Amount, urine ([1]; 48–72 h): 103.2 ± 94.5 ng | PU-48 Concentration in feces ([1]; 48–72 h): 0.5 ± 0.7 µg/mL | PU-48 Concentration in urine ([1]; 48–72 h): 7.5 ± 5.9 ng/mL | Accumulative Excretion Amount, urine ([1]; 72-96 h (within 96 h)): 1458.5 ± 733.1 ng | Accumulative Excretion Percentage, urine ([1]; 72-96 h (within 96 h)): 0.0523 ± 0.0267% and 0.052 ± 0.0267% and 0.052% | Excretion Amount, urine ([1]; 72-96 h): 138.7 ± 101.2 ng | PU-48 Concentration in urine ([1]; 72-96 h): 9.0 ± 5.4 ng/mL | Accumulative Excretion Amount, feces ([1]; 72–96 h (within 96 h)): 45.5 ± 22.0 µg | Accumulative Excretion Percentage, feces ([1]; 72–96 h (within 96 h)): 1.61 ± 0.74% and 1.60% | Excretion Amount, feces ([1]; 72–96 h): 1.2 ± 1.4 µg | PU-48 Concentration in feces ([1]; 72–96 h): 0.2 ± 0.2 µg/mL | Total excretion of PU-48 parent drug in the urine, feces, and bile ([1]; within 96 h): less than 2% | Accumulative Excretion Amount, bile ([2]; 0–1 h): 78.5 ± 60.3 ng | Accumulative Excretion Percentage, bile ([2]; 0–1 h): 0.0027 ± 0.0021% | Excretion Amount, bile ([2]; 0–1 h): 78.5 ± 60.3 ng | PU-48 Concentration in bile ([2]; 0–1 h): 143.8 ± 72.5 ng/mL | Accumulative Excretion Amount, bile ([2]; 1–2 h): 153.6 ± 115.5 ng | Accumulative Excretion Percentage, bile ([2]; 1–2 h): 0.0054 ± 0.0041% | Excretion Amount, bile ([2]; 1–2 h): 75.2 ± 70.3 ng | PU-48 Concentration in bile ([2]; 1–2 h): 123.1 ± 44.3 ng/mL | Accumulative Excretion Amount, bile ([2]; 2–4 h): 218.9 ± 128.9 ng | Accumulative Excretion Percentage, bile ([2]; 2–4 h): 0.0076 ± 0.0046% | Excretion Amount, bile ([2]; 2–4 h): 65.3 ± 39.8 ng | PU-48 Concentration in bile ([2]; 2–4 h): 84.7 ± 20.1 ng/mL | Accumulative Excretion Percentage, bile ([2]; 4–6 h): 0.0085 ± 0.0044% | Excretion Amount, bile ([2]; 4–6 h): 24.5 ± 14.3 ng | PU-48 Concentration in bile ([2]; 4–6 h): 47.6 ± 19.4 ng/mL | Accumulative Excretion Percentage, bile ([2]; 6–8 h): 0.0091 ± 0.0042% | Excretion Amount, bile ([2]; 6–8 h): 18.7 ± 13.4 ng | PU-48 Concentration in bile ([2]; 6–8 h): 41.1 ± 21.9 ng/mL | Accumulative Excretion Amount, bile ([2]; 8–12 h): 301.8 ± 105.8 ng | Accumulative Excretion Percentage, bile ([2]; 8–12 h): 0.0105 ± 0.0037% | Excretion Amount, bile ([2]; 8–12 h): 39.7 ± 45.9 ng | PU-48 Concentration in bile ([2]; 8–12 h): 33.3 ± 17.4 ng/mL | Accumulative Excretion Amount, bile ([2]; 12–24 h): 339.9 ± 122.8 ng | Accumulative Excretion Percentage, bile ([2]; 12–24 h): 0.0118 ± 0.0042% | Excretion Amount, bile ([2]; 12–24 h): 38.1 ± 37.4 ng | PU-48 Concentration in bile ([2]; 12–24 h): 33.4 ± 15.5 ng/mL | Accumulative Excretion Amount, bile ([2]; 24–48 h): 350.7 ± 124.1 ng | Accumulative Excretion Percentage, bile ([2]; 24–48 h): 0.0122 ± 0.0043% | Excretion Amount, bile ([2]; 24–48 h): 10.8 ± 3.2 ng | PU-48 Concentration in bile ([2]; 24–48 h): 9.4 ± 5.4 ng/mL | Accumulative Excretion Amount, bile ([2]; 48–72 h): 355.5 ± 120.8 ng | Accumulative Excretion Percentage, bile ([2]; 48–72 h): 0.0123 ± 0.0042% | Excretion Amount, bile ([2]; 48–72 h): 4.8 ± 4.7 ng | PU-48 Concentration in bile ([2]; 48–72 h): 5.1 ± 3.7 ng/mL | Accumulative Excretion Amount, bile ([2]; 72–96 h (within 96 h)): 357.5 ± 120.1 ng | Accumulative Excretion Percentage, bile ([2]; 72–96 h (within 96 h)): 0.0124 ± 0.0041% and 0.0124 ± 0.004% and 0.0124% | Excretion Amount, bile ([2]; 72–96 h): 2.0 ± 1.8 ng | PU-48 Concentration in bile ([2]; 72–96 h): 1.4 ± 0.9 ng/mL
